According to US20240415985A1, “PHOTOCLEAVABLE PRODRUG-BASED NANOMEDICINE FOR IN-SITU MONITORABLE CANCER THERAPY” (The University of Hong Kong, priority 2021, published 2024):
Like-named read-outs stand apart in the source and are kept apart here. Blank lines part the entries; values can stand above or below the compound they belong to.

Tests used:
[1] = Spectrum study of dye degradation under light irradiation (absorbance, fluorescence); assay type: physicochemical; conditions: for decomposition of dye upon light irradiation: 530 nm, in ICG/BC NPs and IR820/BC NPs (FIGS. 2K-2M)
Experimental: At different time points, the absorbance and fluorescence were measured by spectrometers without any dilution.

[2] = In vivo biodistribution by fluorescence imaging in HCT116 tumor-bearing mice; design: species or system BALB/c nude mice; conditions: i.v., imaging 1-24 h post injection
[3] = Loading capacity and encapsulation efficiency of IR783 and BC in NPs by HPLC; assay type: physicochemical
Experimental: BODIPY-Cb was dissolved in DMSO (20 μL, 10 mg/mL), and added dropwise to a 300 μL aqueous solution containing IR783 (400 μg/mL) under vigorous vortex. The solution was centrifuged once (2000×g, 10 min, 4° C.) to remove the precipitate. Then the supernatant was centrifuged twice (30,000×g, 30 min, 4° C.), and the resulting precipitate was re-suspended in 300 μL of sterile PBS. Other prodrug/dye NPs were prepared following the same procedure as above. The contents of IR783 and BC in the resulted nanoparticle solution were determined by HPLC analysis. Their loading capacity and encapsulation efficiency were calculated as follow: […]

[4] = tested on: human umbilical vein endothelial cells (HUVECs); experiment: Cytotoxicity in dark, biocompatibility evaluation; assay type: cell-based; conditions: 24 h, up to 100 μM
Experimental: (§1) HCT116 cells were cultured in RPMI-1640 (Gibco) supplemented with 10% FBS (Gibco) and 100 units/mL antibiotics (Penicillin-Streptomycin, Gibco) at 37° C. in a 5% CO2 humidified atmosphere. HUVECs cells were cultured in DMEM (Gibco) supplemented with 10% FBS (Gibco) and 100 units/mL antibiotics (Penicillin-Streptomycin, Gibco) at 37° C. in a 5% CO2 humidified atmosphere.
(§2) The cell viability was evaluated by MTT assay. HCT116 cells were incubated in 96-well microliter plates for 24 h. Then, gradient concentrations of BC prodrug or IR783/BC NPs in RPMI 1640 culture medium were added to the cells. After 6 h incubation, the residual BC or IR783/BC NPs were removed by fresh RPMI 1640 culture medium (100 μL). Then, the cells were irradiated by 530 nm LED light (50 mW/cm^2, 5 min) or incubated at room temperature without light. After another incubation for 24 h, MTT solution (10 μL, 10 mg/mL) was added to the cells to cultivate for 3 h. Next, the cell culture medium was discarded, and DMSO (100 μL) was then added. The absorbance was measured by a multi-mode microplate reader at 490 nm, 570 nm and 630 nm.

[5] = Singlet oxygen detection in solution (SOSG assay); assay type: physicochemical; conditions: 530 nm, 50 mW/cm^2, 0-1 min; equivalent concentration of BC
Experimental: Singlet oxygen generation was measured both in solutions and cells using SOSG and DCFH-DA as indicator, respectively. […] Besides, the intracellular ^1O2 generation was detected by CLSM. […] Subsequently, the cells were washed with PBS for 3 times and incubated with DCFH-DA (10 μM) for 30 min. The cells were irradiated by LED (530 nm, 50 mW/cm^2, 5 min) for the light irradiation groups. The intracellular fluorescence was observed by CLSM imaging to evaluate the ^1O2 generation.

[6] = refs [17, 39]; cited from earlier work
[7] = tested on: HCT116 cells; experiment: Apoptosis study (Annexin-V FITC/PI, flow cytometry); assay type: cell-based, human; conditions: 20 μM, with or without light irradiation
Experimental: For apoptosis study, HCT116 cells were seeded in 6-well plates at a density of 50000 cells/well and treated with free Cb or IR783/BC NPs at the equivalent concentration of Cb at 5 μM and 20 μM for 6 h. Then the cells were washed by PBS. The cells in the irradiation group were irradiated by light for 5 min. After 24-h incubation, cells were washed by PBS, collected by trypsin digestion, and stained with Annexin-V/FITC apoptosis kit. ACEA NovoCyte Quanteon flow cytometer (ACEA Biosciences, San Diego, CA, USA) was used for cell study.

[8] = tested on: HCT116 xenografts; experiment: In vivo antitumor efficacy; design: species or system BALB/c nude mice; conditions: without light irradiation, i.v. Day 0, 4, 8, 12
Experimental: BALB/c nude mice were purchased from SLAC Experiment Animal Co., Ltd. (Shanghai, China) and kept in the Laboratory Animal Center of Fudan University (Shanghai, China). For the subcutaneous tumor model, male BALB/c nude mice were injected with 2×10^7 HCT116 cells subcutaneously. The mice were then further kept in SPF condition for 5-7 days until tumors were observed.
The antitumor efficacy of IR783/BC NPs in the presence or absence of light was investigated in HCT116 tumor mouse model. The mice were randomly divided into six groups when the tumor size reached about 200 mm^3. For different groups, mice were treated with different formulations via i.v. injection at Day 0, 4, 8, and 12: (1) PBS; (2) PBS+hv; (3) IR783+hv; (4) Cb; (5) IR783/BC NPs; (6) IR783/BC NPs+hv. For the irradiation group, light irradiations (100 mW/cm^2, 10 min) were performed 24 h post injection. The dose for each treatment was set as 5 mg/kg. Tumor sizes and body weights were measured in a 2-day interval, and the tumor volume was calculated as V=½×width^2×length. At the end of the experiment (Day 14), all mice were euthanized, and the tumors and major organs were collected and sliced for H&E staining and immunohistochemical analysis.

[9] = tested on: HCT116 cells; experiment: Anti-proliferation effect by MTT assay; assay type: cell-based, human
Experimental: as §1, §2

[10] = tested on: HCT116 cells; experiment: Live/dead staining (Calcein-AM/PI); assay type: cell-based, human; conditions: BC equivalent 50 μM; groups with or without 530 nm irradiation as stated
Experimental: For live/dead staining, HCT116 cells were seeded in confocal dishes at a density of 10000 cells/well and treated with PBS, free IR783, free BC and IR783/BC NPs with an equivalent concentration of BC at 50 μM. For the irradiation groups, cells were washed by PBS after 6 h and irradiated by 530 nm LED for 5 min. Calcein-AM and PI were then added into the medium and the cells were observed by CLSM without any treatment.

Compound: CC1(C)C(/C=C/C=C/C=C/C=C2\N(CCCCS(=O)(=O)O)c3ccc4ccccc4c3C2(C)C)=[N+](CCCCS(=O)(=O)[O-])c2ccc3ccccc3c21 [ICG, Indocyanine green]
decomposition of dye upon light irradiation [1]: decomposed

whole-body fluorescence retention after systemic administration [2]: fleetly eliminated
NIR fluorescence emission pattern upon light irradiation ([1]; 530 nm light irradiation): did not see similar phenomena
Encapsulation Efficiency [3]: 0.02%
Loading Capacity [3]: 1.15%
Compound: CC1(C)C(=CC=C2CCCC(C=CC3=[N+](CCCCS(=O)(=O)[O-])c4ccccc4C3(C)C)=C2Cl)N(CCCCS(=O)(=O)[O-])c2ccccc21.[Na+] [IR783]
cytotoxicity in dark [4]: Negligible cytotoxicity
^1O2 generation (SOSG fluorescence) [5]: much lower efficiency

decomposition of dye upon light irradiation [1]: decomposed
Compound: CC1(C)C(=CC=C2CCCC(C=CC3=[N+](CCCCS(=O)(=O)[O-])c4ccc5ccccc5c4C3(C)C)=C2Cl)N(CCCCS(=O)(=O)[O-])c2ccc3ccccc3c21.[Na+] [IR820]

Compound: O=C(O)CCCc1ccc(N(CCCl)CCCl)cc1 [chlorambucil, Chlorambucil]
hydrolysis in aqueous solution [6]: rapidly hydrolyze
apoptosis [7]: about 5%
anti-tumor efficacy [8]: undermined
cytotoxicity of free drug ([9]; with/without light irradiation (FIG. 8B)): relatively low

Compound: boron-dipyrromethene-chlorambucil [BC]
Encapsulation Efficiency ([3]; listed as BC prodrug): 84.37%
Loading Capacity ([3]; listed as BC prodrug): 98.85%
Encapsulation Efficiency ([3]; listed as BODIPY-Cb): 84.37%
Loading Capacity ([3]; listed as BODIPY-Cb): 98.85%
IC50 ([9]; 530 nm light irradiation, on BC prodrug basis, read-out: IC50 (cell viability)): 9.24 µM
cell death in live-dead staining [10]: dead cells presenting red fluorescence were observed
